# Data as given in patent publication US20160168118A1, “N-(5-QUINOLIN-6-YL)PYRIDIN-3-YL) BENZSULFAMIDE DERIVATIVES, PREPARATION METHOD AND THERAPEUTIC USE THEREOF” (SECOND MILITARY MEDICAL UNIVERSITY, PLA, priority 2012, published 2016).
# Read-outs that look alike come from different tables or passages of the source.
# Tests used:
# PC3 = assay: NCI cytotoxicity test, PC3; type: cell-based; conditions: Homo sapiens, PC-3
# From the text: (§1) Cytotoxicity Test of Compound 9, 10 and 17 on 60 Kinds of Human Cancer Cell Lines from the US National Cancer Institute
# five human tumor cells = assay: MTT assay, five human tumor cells (summary in words); type: cell-based; conditions: A549, HCT116, HepG2, ZR-75-30, U87MG
# Procedure: 1. Sample preparation: After dissolved with DMSO (Merck), PBS (−) was added to make 1000 μg/ml solution or a uniform suspension, and then diluted with PBS (−) containing the DMSO. Doxorubicin (DOX) was used as the positive control drug.
# 2. Cell Line • 1) A549 (human lung cancer cells); 2) HCT116 (human colon cancer cells); 3) HepG2 (human hepatoma cells); 4) ZR-75-30 (human breast cancer cells); 5) U87MG (human brain star glioblastoma)
# DMEM+5-10% FBS+double resistant
# MTT assay. 100 μl cell suspension was added at a concentration of 4˜5×10^4 cells/ml to each well of a 96-well plate, and was set at 37° C., 5% CO2 in the incubator. After 24 h, the sample solution was added, 10 μl/hole, double wells were set, 37° C., acting for 72 h at 5% CO2. […] of 5 mg/ml was added to each well, the dissolving liquid was added after acted for 4 h, 100 μl/hole, kept in the incubator, and read 570 nm OD with MK-2 automatic microplate reader after dissolution.
# PI3Kγ = PI3Kγ (Homo sapiens, UniProt P48736); assay: ADP-Glo Luminescent Kinase Assay, PI3Kγ; type: biochemical; conditions: read-out: IC50 on PI3K gamma
# SN12C = assay: NCI cytotoxicity test, SN12C; type: cell-based; conditions: Homo sapiens
# From the text: as §1
# SF539 = assay: NCI cytotoxicity test, SF539; type: cell-based; conditions: Homo sapiens, SF-539
# From the text: as §1
# [1] = Solubility test in buffer solution at pH=1; type: physicochemical; conditions: pH=1 buffer solution, simulated gastric fluid, thermodynamic from solid; buffer solution pH=1
# Procedure: Compound 9 1.02 mg was precisely weighed and placed in 1.5 mL of EP tube, and 10 uL pH=1 buffer solution was added, vortexed for 30S and ultrasonic for 20 min. There was a lot of visible turbidity after that.
# 20 uL buffer was added and ultrasounded and the solution was found still turbid. Turbidity reduced after the solution was diluted to 1 mL and vortexed, while there still exist residual after diluted to 2 mL.
# [2] = test system: A549 (human lung cancer cells); assay: MTT assay, A549; type: cell-based; conditions: 72 h
# How it was run: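 Cells seeded at 4~5×10^4 cells/ml in DMEM with 5-10% FBS, treated after 24 h for 72 h at 37° C, 5% CO2, in duplicate wells. MTT (5 mg/ml) added for 4 h, formazan dissolved and OD read at 570 nm.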
# OVCAR3 = assay: NCI cytotoxicity test, OVCAR3; type: cell-based; conditions: Homo sapiens, OVCAR-3
# From the text: as §1
# PI3K delta = PI3K delta (Homo sapiens, UniProt O00329); assay: Kinase-Glo Luminescent Kinase Assay, PI3K delta; type: biochemical
# MCF7 = assay: NCI cytotoxicity test, MCF7; type: cell-based; conditions: Homo sapiens
# From the text: as §1
# mTOR = mTOR (Homo sapiens, UniProt P42345); assay: Lance Ultra Assay, mTOR; type: biochemical
# [3] = test system: 60 kinds of human cancer cell lines; assay: Cytotoxicity test on 60 kinds of human cancer cell lines from the US National Cancer Institute; type: cell-based
# From the text: as §1
# Chain of PI3Kγ (P48736 whole entry, species assumed): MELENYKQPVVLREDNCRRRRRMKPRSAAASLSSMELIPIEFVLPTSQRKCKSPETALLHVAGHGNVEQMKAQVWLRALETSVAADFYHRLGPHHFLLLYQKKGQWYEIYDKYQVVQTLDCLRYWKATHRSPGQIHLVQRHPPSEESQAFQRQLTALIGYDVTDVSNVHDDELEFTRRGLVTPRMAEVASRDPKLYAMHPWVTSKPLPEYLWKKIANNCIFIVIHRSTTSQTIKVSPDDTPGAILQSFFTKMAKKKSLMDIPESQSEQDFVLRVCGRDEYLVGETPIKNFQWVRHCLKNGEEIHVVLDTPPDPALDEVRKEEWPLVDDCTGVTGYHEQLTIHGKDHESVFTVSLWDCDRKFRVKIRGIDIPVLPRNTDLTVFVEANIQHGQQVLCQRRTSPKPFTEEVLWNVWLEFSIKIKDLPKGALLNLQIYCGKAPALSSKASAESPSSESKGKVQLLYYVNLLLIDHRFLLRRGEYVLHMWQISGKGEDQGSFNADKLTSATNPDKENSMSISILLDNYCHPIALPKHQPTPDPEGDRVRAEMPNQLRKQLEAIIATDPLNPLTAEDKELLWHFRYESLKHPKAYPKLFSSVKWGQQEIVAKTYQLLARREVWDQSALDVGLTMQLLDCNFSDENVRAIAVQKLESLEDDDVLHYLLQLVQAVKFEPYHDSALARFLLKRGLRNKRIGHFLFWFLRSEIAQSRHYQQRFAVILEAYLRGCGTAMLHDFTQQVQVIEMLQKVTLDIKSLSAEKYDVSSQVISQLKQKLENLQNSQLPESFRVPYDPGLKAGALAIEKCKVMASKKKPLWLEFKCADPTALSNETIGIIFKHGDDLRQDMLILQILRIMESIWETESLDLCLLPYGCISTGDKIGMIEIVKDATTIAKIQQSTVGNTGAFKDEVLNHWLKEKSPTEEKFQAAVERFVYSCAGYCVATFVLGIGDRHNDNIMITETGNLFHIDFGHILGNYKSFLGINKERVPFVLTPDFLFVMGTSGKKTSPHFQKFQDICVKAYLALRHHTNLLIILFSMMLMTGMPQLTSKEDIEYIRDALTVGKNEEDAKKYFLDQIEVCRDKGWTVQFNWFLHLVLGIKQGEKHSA
# Chain of PI3K delta (O00329 whole entry): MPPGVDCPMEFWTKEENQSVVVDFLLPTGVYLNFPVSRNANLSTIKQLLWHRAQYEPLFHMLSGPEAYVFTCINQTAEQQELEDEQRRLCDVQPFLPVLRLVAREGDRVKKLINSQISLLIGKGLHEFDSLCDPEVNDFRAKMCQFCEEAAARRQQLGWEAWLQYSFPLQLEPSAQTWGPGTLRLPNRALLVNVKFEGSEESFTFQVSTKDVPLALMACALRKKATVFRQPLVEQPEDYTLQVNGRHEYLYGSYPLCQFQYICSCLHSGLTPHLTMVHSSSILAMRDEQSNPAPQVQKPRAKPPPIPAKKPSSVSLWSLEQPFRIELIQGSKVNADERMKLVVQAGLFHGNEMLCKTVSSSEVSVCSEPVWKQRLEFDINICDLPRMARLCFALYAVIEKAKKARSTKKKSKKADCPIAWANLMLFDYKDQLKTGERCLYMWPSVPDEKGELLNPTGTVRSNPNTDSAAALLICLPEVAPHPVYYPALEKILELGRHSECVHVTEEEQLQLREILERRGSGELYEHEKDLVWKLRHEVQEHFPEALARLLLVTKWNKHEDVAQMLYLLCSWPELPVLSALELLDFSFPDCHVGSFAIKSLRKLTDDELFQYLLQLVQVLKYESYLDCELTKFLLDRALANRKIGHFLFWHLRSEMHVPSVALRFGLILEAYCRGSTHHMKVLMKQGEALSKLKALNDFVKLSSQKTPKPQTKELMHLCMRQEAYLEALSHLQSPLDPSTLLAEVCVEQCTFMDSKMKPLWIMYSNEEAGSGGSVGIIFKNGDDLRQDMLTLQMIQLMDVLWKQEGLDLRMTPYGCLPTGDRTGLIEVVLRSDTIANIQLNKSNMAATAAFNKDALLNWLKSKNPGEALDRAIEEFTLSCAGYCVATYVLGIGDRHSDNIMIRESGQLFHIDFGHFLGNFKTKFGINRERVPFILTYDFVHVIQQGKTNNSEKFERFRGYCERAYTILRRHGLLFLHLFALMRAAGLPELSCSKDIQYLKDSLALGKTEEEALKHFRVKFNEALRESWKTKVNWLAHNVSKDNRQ
# Chain of PI3K delta (P27986 whole entry partner): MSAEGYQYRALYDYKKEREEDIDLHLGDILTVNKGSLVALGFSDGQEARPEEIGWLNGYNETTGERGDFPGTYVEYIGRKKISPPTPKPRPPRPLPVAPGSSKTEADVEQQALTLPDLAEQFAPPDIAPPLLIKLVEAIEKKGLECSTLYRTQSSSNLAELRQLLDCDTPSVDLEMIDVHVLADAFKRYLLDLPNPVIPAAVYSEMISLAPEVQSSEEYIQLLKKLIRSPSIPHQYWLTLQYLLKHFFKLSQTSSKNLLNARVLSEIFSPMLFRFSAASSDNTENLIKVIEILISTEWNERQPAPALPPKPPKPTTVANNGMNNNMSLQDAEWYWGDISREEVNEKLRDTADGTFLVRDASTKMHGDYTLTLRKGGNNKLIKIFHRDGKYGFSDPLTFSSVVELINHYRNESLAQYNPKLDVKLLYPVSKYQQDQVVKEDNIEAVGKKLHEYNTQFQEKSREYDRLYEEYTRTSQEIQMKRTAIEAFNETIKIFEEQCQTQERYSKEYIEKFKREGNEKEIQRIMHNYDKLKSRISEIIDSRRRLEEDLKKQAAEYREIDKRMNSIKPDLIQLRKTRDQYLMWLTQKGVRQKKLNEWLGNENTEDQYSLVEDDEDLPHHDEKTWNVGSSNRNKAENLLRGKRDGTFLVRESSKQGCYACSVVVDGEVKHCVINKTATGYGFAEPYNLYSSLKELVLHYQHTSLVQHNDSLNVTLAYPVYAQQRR
structure (smiles),measurement,setting,value
"COc1ncc(-c2ccc3nccc(-c4ccc(CN(C)C)cc4)c3c2)cc1NS(=O)(=O)c1ccc(F)cc1F [Compound 9, N-(5-(4-(4-((dimethylamine)methyl)phenyl)quinolin-6-yl)-2-methoxypyridine-3-yl)-2,4-difluorobenzenesulfonamide]",GI50,PC3,< 10 nM
same,in vitro proliferation inhibition (in words),five human tumor cells,high in vitro proliferation inhibition
same,IC50,PI3Kγ,1.5 nM
same,GI50,SN12C,< 10 nM
same,GI50,SF539,17 nM
same,solubility at 20 min,[1],33.3 mg/mL
same,IC50,[2],2.47 ng/mL
same,GI50,OVCAR3,< 10 nM
same,IC50,PI3K delta,3.8 nM
same,GI50,MCF7,< 10 nM
same,IC50,mTOR,3.8 nM
same,GI50,"[3]; on the 35 tumor cell lines, read-out: average half growth inhibitory concentration (GI50)",< 10 nM
same,GI50,"[3]; on the 60 kinds of tumor cells, read-out: Average GI50",18.6 nM
